In one test the test system is Colo205 cells. The test can be described thus: Analysis of cell proliferation and viability. Type of test: cell-based. The conditions noted are these: Homo sapiens. The method, then:
Compounds were screened for their ability to inhibit cell proliferation and their effects on cell viability using Colo205 cells obtained from ECACC and using the assay shown below.
Colo205 cells were seeded in 96 well plates and serially diluted compound was added to the wells in duplicate. Control groups included untreated cells, the compound diluent (0.1% DMSO alone) and culture medium without cells. The cells were then incubated for 72 or 96 hrs at 37 C in an atmosphere of 5% CO2/95% humidity.
To measure proliferation, 3 h prior to the end of the experiment 0.5 μCi of 3H thymidine was added to each well. Cells were then harvested and the incorporated radioactivity counted on a Wallac microplate beta-counter. Cell viability was assessed using Promega CellTiter 96AQ to measure MTS conversion. Dose response curves were calculated using either Prism 3.0 (GraphPad) or SoftMax Pro 4.3.1 LS (Molecular Devices) software.

Another test concerns the target T1, Aurora-2 (Aurora A) (Homo sapiens, UniProt O14965).
T1 sequence (O14965 1-403): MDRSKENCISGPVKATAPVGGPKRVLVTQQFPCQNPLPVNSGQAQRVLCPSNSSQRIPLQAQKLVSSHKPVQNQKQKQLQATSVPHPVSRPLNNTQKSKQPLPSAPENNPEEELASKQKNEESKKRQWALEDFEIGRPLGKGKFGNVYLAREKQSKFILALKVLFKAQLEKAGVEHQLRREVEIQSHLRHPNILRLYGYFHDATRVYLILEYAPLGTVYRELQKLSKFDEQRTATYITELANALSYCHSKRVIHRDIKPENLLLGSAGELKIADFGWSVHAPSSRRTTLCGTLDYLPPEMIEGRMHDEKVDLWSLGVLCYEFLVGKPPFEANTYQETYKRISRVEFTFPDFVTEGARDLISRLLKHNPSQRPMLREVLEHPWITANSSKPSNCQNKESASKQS
As to the kind of experiment: Aurora-2 (Aurora A) inhibition assay, coupled enzyme. The conditions noted are these: 400 μM ATP, 30° C. Type of test: biochemical. As for the experimental part: Compounds were screened for their ability to inhibit Aurora-2 using a standard coupled enzyme assay (Fox et al., Protein Sci., (1998) 7, 2249). Assays were carried out in a mixture of 100 mM Hepes (pH7.5), 10 mM MgCl2, 1 mM DTT, 25 mM NaCl, 2.5 mM phosphoenolpyruvate, 300 μM NADH, 30 μg/ml pyruvate kinase and 10 μg/ml lactate dehydrogenase. Final substrate concentrations in the assay were 400 μM ATP (Sigma Chemicals) and 570 μM peptide (Kemptide, American Peptide, Sunnyvale, Calif.). Assays were carried out at 30° C. and in the presence of 40 nM Aurora-2.
An assay stock buffer solution was prepared containing all of the reagents listed above, with the exception of Aurora-2 and the test compound of interest. 55 μl of the stock solution was placed in a 96 well plate followed by addition of 2 μl of DMSO stock containing serial dilutions of the test compound (typically starting from a final concentration of 7.5 μM). The plate was preincubated for 10 minutes at 30° C. and the reaction initiated by addition of 10 μl of Aurora-2. Initial reaction rates were determined with a Molecular Devices SpectraMax Plus plate reader over a 10 minute time course. IC50 and Ki data were calculated from non-linear regression analysis using the Prism software package (GraphPad Prism version 3.0cx for Macintosh, GraphPad Software, San Diego Calif., USA).

The target of another test is Aurora-1 (Aurora B) (Homo sapiens, UniProt Q96GD4). As to the kind of experiment: Aurora-1 (Aurora B) inhibition assay (radiometric). The following applies: 800 μM ATP, 25° C.; read-out: Ki, Aurora-1 (Aurora B) radiometric assay (sentence prints Aurora A). Type of test: biochemical. As for the experimental part: An assay buffer solution was prepared which consisted of 25 mM HEPES (pH 7.5), 10 mM MgCl2, 0.1% BSA and 10% glycerol. A 22 nM Aurora-B solution, also containing 1.7 mM DTT and 1.5 mM Kemptide (LRRASLG), was prepared in assay buffer. To 22 μL of the Aurora-B solution, in a 96-well plate, was added 2 μl of a compound stock solution in DMSO and the mixture allowed to equilibrate for 10 minutes at 25° C. The enzyme reaction was initiated by the addition of 16 μl stock [γ-^33P]-ATP solution ([…]) prepared in assay buffer, to a final assay concentration of 800 μM. The reaction was stopped after 3 hours by the addition of 16 μL 500 mM phosphoric acid and the levels of ^33P incorporation into the peptide substrate were determined by the following method.
A phosphocellulose 96-well plate (Millipore, Cat no. MAPHNOB50) was pre-treated with 100 μL of a 100 mM phosphoric acid prior to the addition of the enzyme reaction mixture (40 μL). […] Levels of non-enzyme catalyzed background radioactivity were determined by adding 16 μL of the 500 mM phosphoric acid to control wells, containing all assay components (which acts to denature the enzyme), prior to the addition of the [γ-^33P]-ATP solution. Levels of enzyme catalyzed ^33P incorporation were calculated by subtracting mean background counts from those measured at each inhibitor concentration. […]

Test [1] concerns the target T2, T315I mutant of human Abl (Homo sapiens, UniProt P00519, T315I).
T2 construct: purchased Upstate Cell Signaling Solutions (Dundee, UK), assay run at the vendor
The test can be described thus: Mutant Abl kinase (T315I) activity inhibition assay. In kind it is biochemical. The following applies: at Upstate Cell Signaling Solutions. As for the experimental part: Compounds were screened for their ability to inhibit the T315I mutant form of human Abl at Upstate Cell Signaling Solutions (Dundee, UK). In a final reaction volume of 25 μl, the T315I mutant of human Abl (5-10 mU) was incubated with 8 mM MOPS pH 7.0, 0.2 mM EDTA, 50 μM EAIYAAPFAKKK, 10 mM Mg Acetate, [γ-^33P-ATP](specific activity approx. 500 cpm/pmol, […] final assay concentration) and the test compound of interest at final concentrations over the range […]. The reaction was initiated by the addition of the MgATP mix. After incubation for 40 minutes at room temperature, the reaction was stopped by the addition of 5 μl of a 3% phosphoric acid solution. 10 μl of the reaction was then spotted onto a P30 filtermat and washed three times for 5 minutes in 75 mM phosphoric acid and once in methanol prior to drying and scintillation counting. […]

The mark [2] stands for this setting: COLO 205, 72 hours, read-out: IC50 values after 72 hours.
Setting [3] is: COLO 205, 96 hours, read-out: IC50 values after 96 hours.

In patent US20130324725A1, “AMINOPYRIMIDINES USEFUL AS KINASE INHIBITORS” (VERTEX PHARMACEUTICALS INCORPORATED, priority 2007, published 2013) one finds IC50 and Ki data, which are given here for 18 compounds.

Read-outs that look alike come from different tables or passages of the source.

Sequence of Aurora-1 (Aurora B) (Q96GD4 whole entry): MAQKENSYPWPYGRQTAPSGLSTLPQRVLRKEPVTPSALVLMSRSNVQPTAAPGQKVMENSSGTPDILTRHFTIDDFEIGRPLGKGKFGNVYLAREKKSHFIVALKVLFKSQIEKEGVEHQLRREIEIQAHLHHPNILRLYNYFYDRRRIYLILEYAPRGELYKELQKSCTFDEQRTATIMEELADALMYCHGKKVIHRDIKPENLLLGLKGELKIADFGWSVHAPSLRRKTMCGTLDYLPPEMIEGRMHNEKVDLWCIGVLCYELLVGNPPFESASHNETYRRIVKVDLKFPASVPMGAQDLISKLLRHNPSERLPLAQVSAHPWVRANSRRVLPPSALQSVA

As a reminder, the IC50 is the concentration at which inhibition is half-maximal. `Cc1cc(Nc2cc(N3CCN(C4CCCCC4)CC3)nc(Sc3cc(F)c4nc(C)ccc4c3)n2)[nH]n1` [Compound I-1]: the IC50 in the test with Colo205 cells (setting [2]) was in the range of 50 to 100 nM.

As to `Cc1cc(Nc2cc(N3CCN(C(C)(C)CF)CC3)nc(Sc3ccc4c(c3)CN(CC(F)(F)F)C4=O)n2)[nH]n1` [Compound I-2], the IC50 with Colo205 cells (setting [2]) fell in the range of 50 to 100 nM.

Take `Cc1cc(Nc2cc(N3CCN(C4CCCCC4)CC3)nc(Sc3ccc4nc(C(F)(F)F)n(C)c4c3)n2)[nH]n1` [Compound I-3]: the half-maximal inhibitory concentration (IC50) with Colo205 cells (setting [2]) and in the test on Colo205 cells (setting [3]) was < 50 nM throughout.

In the case of `Cc1cc(Nc2cc(N3CCN(C4CC4)CC3)nc(Sc3ccc4nc(C(F)(F)F)[nH]c4c3)n2)[nH]n1` [Compound I-4], in the test on Colo205 cells (setting [2]), the IC50 fell in the range of 50 to 100 nM.

Turning to `Cc1cc(Nc2cc(N3CCN(C4CC4)CC3)nc(Sc3ccc4nc(CC(F)(F)F)n(C)c4c3)n2)[nH]n1` [Compound I-5], the IC50 in the test with Colo205 cells (setting [2]) is < 50 nM.

Take `Cc1cc(Nc2cc(N3CCN(C(C)(C)CF)CC3)nc(Sc3ccc4nc(CC(F)(F)F)n(C)c4c3)n2)[nH]n1` [Compound I-7]: in the test on Colo205 cells (setting [2]), the concentration for half-maximal inhibition (IC50) was < 50 nM.

In the case of `Cc1cc(Nc2cc(N3CCN(C4CCCCC4)CC3)nc(Sc3ccc4nc(C(F)(F)F)[nH]c4c3)n2)[nH]n1` [Compound I-8], the IC50 in the test with Colo205 cells (setting [2]) is < 50 nM.

Usually Ki stands for a measure of affinity in units of concentration, obtained from inhibition or displacement. Regarding `Cc1cc(Nc2cc(N3CCN(CC(F)(F)F)CC3)nc(Sc3ccc4nc(C(F)(F)F)[nH]c4c3)n2)[nH]n1` [Compound I-9], the Ki is ≤ 1 nM on Aurora-2 (Aurora A) and 20 to 50 nM on Aurora-1 (Aurora B).

On to `Cc1cc(Nc2cc(N3CCN(C4CC4)CC3)nc(Sc3ccc4nc(C(F)(F)F)n(C)c4c3)n2)[nH]n1` [Compound I-10], for which the half-maximal inhibitory concentration (IC50) in the test with Colo205 cells (setting [2]) is 50 to 100 nM; with Colo205 cells (setting [3]), < 50 nM.

For `Cc1cc(Nc2cc(N3CCN(C4CCN(C)CC4)CC3)nc(Sc3ccc4nc(C(F)(F)F)n(C)c4c3)n2)[nH]n1` [Compound I-12], the IC50 with Colo205 cells (setting [2]) was < 50 nM.

Regarding `Cc1cc(Nc2cc(N3CCN(C4CCN(C)CC4)CC3)nc(Sc3cc(F)c4nc(C)ccc4c3)n2)[nH]n1` [Compound I-13, 2-(8-fluoro-2-methylquinolin-6-ylthio)-N-(3-methyl-1H-pyrazol-5-yl)-6-(4-(1-methylpiperidin-4-yl)piperazin-1-yl)pyrimidin-4-amine], in the test on Colo205 cells (setting [2]), the half-inhibitory concentration (IC50) is < 50 nM.

Regarding `Cc1cc(Nc2cc(N3CCN(C(C)(C)C)CC3)nc(Sc3ccc4c(cnn4C)c3)n2)[nH]n1` [Compound I-16], the IC50 in the test with Colo205 cells (setting [3]) was < 50 nM.

With `Cc1cc(Nc2cc(N3CCN(C4CCN(C)CC4)CC3)nc(Sc3ccc4nc(C(F)(F)F)ccc4c3)n2)[nH]n1` [Compound I-17], the Ki in test [1] was < 25 nM. Further, in the test with Colo205 cells (setting [2]), the half-maximal inhibitory concentration (IC50) fell in the range of 50 to 100 nM.

As to `Cc1cc(Nc2cc(N3CCN(C(C)(C)C)CC3)nc(Sc3ccc4ncn(C)c4c3)n2)[nH]n1` [Compound I-18], in the test on Colo205 cells (setting [3]), the IC50 was < 50 nM.

In the case of `Cc1cc(Nc2cc(N3CCN(C4CCCCC4)CC3)nc(Sc3ccc4nc(CC(F)(F)F)n(C)c4c3)n2)[nH]n1` [Compound I-19], the IC50 with Colo205 cells (setting [2]) was < 50 nM.

For `Cc1cc(Nc2cc(N3CCN(C4CC4)CC3)nc(Sc3ccc4c(c3)CN(CC(F)(F)F)C4=O)n2)[nH]n1` [Compound I-20], in the test with Colo205 cells (setting [2]), the 50% inhibitory concentration (IC50) is < 50 nM.

With `Cc1cc(Nc2cc(N3CCN(CC(F)(F)F)CC3)nc(Sc3ccc4c(c3)CN(CC(F)(F)F)C4=O)n2)[nH]n1` [Compound I-24], the IC50 with Colo205 cells (setting [2]) fell in the range of 50 to 100 nM.

In the case of `Cc1cc(Nc2cc(N3CCN(C4CCCCC4)CC3)nc(Sc3ccc4c(c3)CN(CC(F)(F)F)C4=O)n2)[nH]n1` [Compound I-25], the IC50 in the test with Colo205 cells (setting [2]) is < 50 nM.
